Assays:
Test in all cases: relative viability (nuclei count vs DMSO), 5 days (fraction); higher = more cells survive
Carfilzomib = compound: CC(C)C[C@H](NC(=O)[C@H](CCc1ccccc1)NC(=O)CN1CCOCC1)C(=O)N[C@@H](Cc1ccccc1)C(=O)N[C@@H](CC(C)C)C(=O)[C@@]1(C)CO1 [Carfilzomib]
Procedure, shortened: (§1)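 MetaXpress counted nuclei in 4× images of lung cancer cell lines that had been fixed, permeabilised and Hoechst-stained in one step. Before that, cells in 1536-well plates were kept overnight at 37 °C, pinned with five √10-spaced library-drug doses on vehicle-anchored plates, and cultured 5 days without medium change. Viability takes treated-well nuclei over vehicle-well nuclei and uses the median across plates. Plates were accepted only at control CV below 25% and at least one doubling.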

Crizotinib = compound: C[C@@H](Oc1cc(-c2cnn(C3CCNCC3)c2)cnc1N)c1c(Cl)ccc(F)c1Cl [Crizotinib]
Procedure, shortened: as §1

Olaparib = compound: O=C(c1cc(Cc2n[nH]c(=O)c3ccccc23)ccc1F)N1CCN(C(=O)C2CC2)CC1 [Olaparib]
Procedure, shortened: as §1

Cell Line: NCI-H1793
- relative viability (Carfilzomib; 0.003162 µM): 1.03
- relative viability (Carfilzomib; 0.01 µM): 0.827
- relative viability (Carfilzomib; 0.03162 µM): 0.9
- relative viability (Carfilzomib; 0.1 µM): 0.165
- relative viability (Crizotinib; 0.03162 µM): 0.987
- relative viability (Crizotinib; 1 µM): 1.09
- relative viability (Olaparib; 0.08 µM): 0.93
- relative viability (Olaparib; 0.253 µM): 0.856
- relative viability (Olaparib; 2.53 µM): 0.824
- relative viability (Olaparib; 8 µM): 0.776
- relative viability (Olaparib; 8 µM, anchor plate): 0.911
